System: 349418-098-R-PDC complex spheroid viability
Experiment: Anticancer human tumor 349418-098-R-PDC patient-derived lung adenocarcinoma cell line growth inhibition [RAS]
Settings: for IC50: curve of first compound; for viability, T/C: stronger effect = lower value
Outline: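 Multi-cell-type spheroids: tumor cells plus HUVEC endothelial cells and mesenchymal stem cells. RAS-pathway inhibitors were combined with targeted agents, each dosed in half-log steps down from clinical Cmax, or from 10 microM when Cmax was unknown.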

[1] = second compound 0.000949 µM, first compound 0.0316 µM
[2] = second compound 0.000949 µM, first compound 0.1 µM
[3] = second compound 0.000949 µM, first compound 0.316 µM
[4] = second compound 0.000949 µM, first compound 1 µM
[5] = second compound 0.003 µM, first compound 0.0316 µM
[6] = second compound 0.003 µM, first compound 0.1 µM
[7] = second compound 0.003 µM, first compound 0.316 µM
[8] = second compound 0.003 µM, first compound 1 µM
[9] = second compound 0.00949 µM, first compound 0.0316 µM
[10] = second compound 0.00949 µM, first compound 0.1 µM
[11] = second compound 0.00949 µM, first compound 0.316 µM
[12] = second compound 0.00949 µM, first compound 1 µM
[13] = second compound 0.03 µM, first compound 0.0316 µM
[14] = second compound 0.03 µM, first compound 0.1 µM
[15] = second compound 0.03 µM, first compound 0.316 µM
[16] = second compound 0.03 µM, first compound 1 µM
[17] = second compound 0.0949 µM, first compound 0.0316 µM
[18] = second compound 0.0949 µM, first compound 0.1 µM
[19] = second compound 0.0949 µM, first compound 0.316 µM
[20] = second compound 0.0949 µM, first compound 1 µM
[21] = second compound 0.3 µM, first compound 0.0316 µM
[22] = second compound 0.3 µM, first compound 0.1 µM
[23] = second compound 0.3 µM, first compound 0.316 µM
[24] = second compound 0.3 µM, first compound 1 µM
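Note: spheroids exposed to compound for seven days before viability readout.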

CC1(O)CCCC1n1c(=O)c(C(F)F)cc2cnc(NC3CCN(S(C)(=O)=O)CC3)nc21 (centres undefined) + CCn1c(-c2cc(N3CCN(C)CC3)cnc2C(C)OC)c2c3cc(ccc31)-c1csc(n1)CC(NC(=O)C1CC1C)C(=O)N1CCCC(N1)C(=O)OCC(C)(C)C2
IC50 (second compound 0.000949 µM): 63.6 nM | IC50 (second compound 0.003 µM): 73.1 nM | IC50 (second compound 0.00949 µM): 56.9 nM | IC50 (second compound 0.03 µM): 84.3 nM | IC50 (second compound 0.0949 µM): 83.6 nM | IC50 (second compound 0.3 µM): 78.1 nM | viability, T/C [1]: 71.3% | viability, T/C [2]: 34.3% | viability, T/C [3]: 21.8% | viability, T/C [4]: 21.3% | viability, T/C (second compound 0.000949 µM, first compound 3.16 µM): 22.5% | viability, T/C (second compound 0.000949 µM, first compound 10 µM): 3.27% | viability, T/C [5]: 73.1% | viability, T/C [6]: 38.1% | viability, T/C [7]: 25.3% | viability, T/C [8]: 20.1% | viability, T/C (second compound 0.003 µM, first compound 3.16 µM): 21.5% | viability, T/C (second compound 0.003 µM, first compound 10 µM): 2.54% | viability, T/C [9]: 60.6% | viability, T/C [10]: 41.4% | viability, T/C [11]: 22% | viability, T/C [12]: 23% | viability, T/C (second compound 0.00949 µM, first compound 3.16 µM): 19.6% | viability, T/C (second compound 0.00949 µM, first compound 10 µM): 2.74% | viability, T/C [13]: 70.8% | viability, T/C [14]: 48.1% | viability, T/C [15]: 23.6% | viability, T/C [16]: 22.9% | viability, T/C (second compound 0.03 µM, first compound 3.16 µM): 19.2% | viability, T/C (second compound 0.03 µM, first compound 10 µM): 2.55% | viability, T/C [17]: 83.8% | viability, T/C [18]: 42% | viability, T/C [19]: 23.3% | viability, T/C [20]: 23.9% | viability, T/C (second compound 0.0949 µM, first compound 3.16 µM): 21.4% | viability, T/C (second compound 0.0949 µM, first compound 10 µM): 2.75% | viability, T/C [21]: 78.2% | viability, T/C [22]: 40.7% | viability, T/C [23]: 22.5% | viability, T/C [24]: 22.3% | viability, T/C (second compound 0.3 µM, first compound 3.16 µM): 20.5% | viability, T/C (second compound 0.3 µM, first compound 10 µM): 2.63%

CCN1CCN(Cc2ccc(Nc3ncc(F)c(-c4cc(F)c5nc(C)n(C(C)C)c5c4)n3)nc2)CC1 + CCn1c(-c2cc(N3CCN(C)CC3)cnc2C(C)OC)c2c3cc(ccc31)-c1csc(n1)CC(NC(=O)C1CC1C)C(=O)N1CCCC(N1)C(=O)OCC(C)(C)C2
IC50 (second compound 0.000949 µM): 19.3 nM | IC50 (second compound 0.003 µM): 16.4 nM | IC50 (second compound 0.00949 µM): 17.1 nM | IC50 (second compound 0.03 µM): 21.8 nM | IC50 (second compound 0.0949 µM): 28.7 nM | IC50 (second compound 0.3 µM): 20.6 nM | viability, T/C (second compound 0.000949 µM, first compound 0.00316 µM): 96.6% | viability, T/C (second compound 0.000949 µM, first compound 0.01 µM): 68.5% | viability, T/C [1]: 33.4% | viability, T/C [2]: 28.7% | viability, T/C [3]: 20.4% | viability, T/C [4]: 15.3% | viability, T/C (second compound 0.003 µM, first compound 0.00316 µM): 93.4% | viability, T/C (second compound 0.003 µM, first compound 0.01 µM): 59.7% | viability, T/C [5]: 38.5% | viability, T/C [6]: 19.3% | viability, T/C [7]: 20.3% | viability, T/C [8]: 14% | viability, T/C (second compound 0.00949 µM, first compound 0.00316 µM): 103% | viability, T/C (second compound 0.00949 µM, first compound 0.01 µM): 63.4% | viability, T/C [9]: 35.3% | viability, T/C [10]: 18.5% | viability, T/C [11]: 20% | viability, T/C [12]: 12.7% | viability, T/C (second compound 0.03 µM, first compound 0.00316 µM): 104% | viability, T/C (second compound 0.03 µM, first compound 0.01 µM): 85.5% | viability, T/C [13]: 33% | viability, T/C [14]: 19.5% | viability, T/C [15]: 23.5% | viability, T/C [16]: 15% | viability, T/C (second compound 0.0949 µM, first compound 0.00316 µM): 92.7% | viability, T/C (second compound 0.0949 µM, first compound 0.01 µM): 54.4% | viability, T/C [17]: 58.4% | viability, T/C [18]: 33.1% | viability, T/C [19]: 23.1% | viability, T/C [20]: 12.8% | viability, T/C (second compound 0.3 µM, first compound 0.00316 µM): 88.1% | viability, T/C (second compound 0.3 µM, first compound 0.01 µM): 60.1% | viability, T/C [21]: 42.8% | viability, T/C [22]: 32.3% | viability, T/C [23]: 22% | viability, T/C [24]: 14.6%

Source: PubChem BioAssay AID2060904 (Molecular Pharmacology Branch, DTP, NCI, 2025)
